Here are results for eight molecules from paper PMC3089059 (Bioorganic & medicinal chemistry, 2011).

pIC50, pKd: −log10 of the molar value.

Data set [1] in a line: Microsomal stability assay. The note with it: after 60 min of incubation in rat microsomal preparations, 4 μM, NADPH. The data set is classed as in vitro ADME.
The target in data set [2] is T1, JNK1 (Homo sapiens, UniProt P45983). The data set is classed as biochemical.
Data set [3] in a line: Plasma stability assay. The data set is classed as in vitro ADME. The note with it: after 60 min of incubation in rat plasma, 1 μM, 37 °C.
The target of data set [4] is JNK1 (Homo sapiens, UniProt P45984). As to the kind of experiment: biochemical. It counts as binding. The note with it: ITC.
Data set [5] concerns the target T1, JNK1. As to the kind of experiment: DELFIA assay, displacement of biotinylated pepJIP1 from GST-JNK1. The data set is classed as binding.

T1 sequence (P45983 whole entry): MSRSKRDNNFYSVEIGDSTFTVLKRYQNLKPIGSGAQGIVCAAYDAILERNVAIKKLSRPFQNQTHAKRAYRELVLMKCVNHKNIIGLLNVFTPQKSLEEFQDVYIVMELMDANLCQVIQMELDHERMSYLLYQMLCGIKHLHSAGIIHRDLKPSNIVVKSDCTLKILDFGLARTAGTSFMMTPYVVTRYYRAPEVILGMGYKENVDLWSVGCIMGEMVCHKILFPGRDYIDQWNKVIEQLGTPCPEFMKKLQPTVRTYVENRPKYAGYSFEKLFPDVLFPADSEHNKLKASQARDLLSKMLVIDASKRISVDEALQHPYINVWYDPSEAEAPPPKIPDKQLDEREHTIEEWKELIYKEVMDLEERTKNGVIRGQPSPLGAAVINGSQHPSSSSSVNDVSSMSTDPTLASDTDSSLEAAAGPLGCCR
JNK1 (Homo sapiens, UniProt P45984), sequence (P45984 whole entry): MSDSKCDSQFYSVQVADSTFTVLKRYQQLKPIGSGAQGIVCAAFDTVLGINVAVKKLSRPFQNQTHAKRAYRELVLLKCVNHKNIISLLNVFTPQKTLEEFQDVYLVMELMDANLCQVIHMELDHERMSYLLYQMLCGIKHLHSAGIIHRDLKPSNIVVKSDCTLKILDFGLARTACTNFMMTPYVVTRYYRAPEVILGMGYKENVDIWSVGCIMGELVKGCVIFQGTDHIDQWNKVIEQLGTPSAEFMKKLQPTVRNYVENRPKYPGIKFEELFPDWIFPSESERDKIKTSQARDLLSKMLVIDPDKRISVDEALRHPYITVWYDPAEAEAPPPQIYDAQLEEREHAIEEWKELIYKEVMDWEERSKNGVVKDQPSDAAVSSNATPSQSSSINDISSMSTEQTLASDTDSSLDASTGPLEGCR

The term pKd denotes the negative decadic logarithm of the Kd, by convention in mol/L. In data set [1], `NC(=O)c1ccsc1NC(=O)Cc1csc2ccccc12` [Compound 25] yielded a degraded of 85%. The “mode of inhibition versus ATP (Lineweaver-Burk)” value in data set [2] (increasing ATP concentrations) is “ATP competitive inhibitor”. Further, in data set [2] (increasing substrate ATF2 concentrations), the “mode of inhibition versus substrate ATF2 (Lineweaver-Burk)” value is listed as “mixed substrate competitive inhibitor”. In addition, the plasma stability result in data set [3] is given as “basically unaltered”. Also, the pKd in data set [4] (in presence of ATP (saturating non-hydrolizable ATP)) is 5.96; in data set [4] (in presence of pepJIP1 (saturating)), 5.51.

For `N#Cc1ccsc1NC(=O)Cc1cccc2ccccc12` [Compound 5c], the “JNK1 inhibitory activity (in words)” value in data set [2] was “significant loss of JNK1 inhibitory activity”.

In turn, `NC(=O)c1ccsc1NC(=O)Cc1ccccc1Cl` [Compound 26] registered a degraded in data set [1] of 70%. Besides, the plasma stability entry in data set [3] is on record as “basically unaltered”.

In the case of `COC(=O)c1ccsc1NC(=O)Cc1cccc2ccccc12` [Compound 5b], the “JNK1 inhibitory activity (in words)” value in data set [2] is recorded as “significant loss of JNK1 inhibitory activity”.

Turning to `O=C(Cc1cccc2ccccc12)Nc1sccc1C(=O)O` [Compound 5a], the “JNK1 inhibitory activity (in words)” value in data set [2] was “significant loss of JNK1 inhibitory activity”.

For `NC(=O)c1ccc(NC(=O)Cc2cccc3ccccc23)s1` [Compound 5f], the “JNK1 inhibitory activity (in words)” value in data set [2] was “completely inactive”.

Consider `NC(=O)c1ccsc1NC(=O)Cc1cccc(Br)c1` [Compound 33], for which, in data set [1], the degraded is given as 74%. Besides, the plasma stability entry in data set [3] is on record as “basically unaltered”.

The term pIC50 denotes −log10 of the IC50, conventionally taken in molar units. As to `Cc1sc(NC(=O)Cc2cccc3ccccc23)c(C(N)=O)c1C` [Compound 1, 4,5-dimethyl-2-(2-(naphthalen-1-yl)acetamido)thiophene-3-carboxamide], in data set [5], the negative-log IC50 (pIC50) is 4.80.
